Patent publication US12263172B2, “Toll-like receptor agonists for use in the treatment of hepatitis b” (priority 2019, dated 2025)

Experiments:
monkey TLR7 = target: T1, monkey TLR7 (Macaca fascicularis, UniProt B3Y652); experiment: activation of monkey TLR7 (LEC); type: cell-based
T1 sequence (B3Y652 1-1049): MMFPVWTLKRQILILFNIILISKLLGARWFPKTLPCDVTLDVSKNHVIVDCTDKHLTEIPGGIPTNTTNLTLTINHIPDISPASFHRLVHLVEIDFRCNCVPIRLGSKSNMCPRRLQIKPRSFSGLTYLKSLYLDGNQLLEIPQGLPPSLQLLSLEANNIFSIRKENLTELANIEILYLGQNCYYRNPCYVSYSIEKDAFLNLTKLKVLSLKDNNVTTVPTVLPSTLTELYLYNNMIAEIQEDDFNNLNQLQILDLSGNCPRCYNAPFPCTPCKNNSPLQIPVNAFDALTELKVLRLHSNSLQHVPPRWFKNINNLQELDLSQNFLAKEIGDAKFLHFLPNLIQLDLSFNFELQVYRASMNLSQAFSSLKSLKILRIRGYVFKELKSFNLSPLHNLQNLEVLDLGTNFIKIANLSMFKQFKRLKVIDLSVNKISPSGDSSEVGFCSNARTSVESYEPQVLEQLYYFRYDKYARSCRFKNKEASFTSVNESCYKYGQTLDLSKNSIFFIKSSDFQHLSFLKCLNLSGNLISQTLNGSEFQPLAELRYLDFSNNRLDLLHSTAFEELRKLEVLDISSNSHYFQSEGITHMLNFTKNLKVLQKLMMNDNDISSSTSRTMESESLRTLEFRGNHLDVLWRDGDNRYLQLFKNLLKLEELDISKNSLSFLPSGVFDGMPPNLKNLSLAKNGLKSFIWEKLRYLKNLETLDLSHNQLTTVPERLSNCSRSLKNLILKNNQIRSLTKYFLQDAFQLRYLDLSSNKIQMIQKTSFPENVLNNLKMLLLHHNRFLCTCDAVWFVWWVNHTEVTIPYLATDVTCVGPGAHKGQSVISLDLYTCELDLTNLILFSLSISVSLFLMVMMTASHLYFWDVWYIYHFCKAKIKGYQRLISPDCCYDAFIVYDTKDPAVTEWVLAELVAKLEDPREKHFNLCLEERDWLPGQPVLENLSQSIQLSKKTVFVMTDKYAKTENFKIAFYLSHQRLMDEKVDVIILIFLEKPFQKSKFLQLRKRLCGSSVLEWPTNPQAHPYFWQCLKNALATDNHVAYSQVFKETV
From the text: (§1) Exposure increased more than dose-proportionally at low doses. Variability in exposure was high. • In vitro plasma protein binding was between 79.6% and 94.2% in animals and humans. Volume of distribution after intravenous dosing was high. […] Main metabolic pathways were oxygenation, hydrogenation, dehydrogenation, dealkylation, acetylation, glucuronidation, and/or glutathione conjugation. • In rats, >80% of drug-related material was found in feces, 11% to 20% in bile, and <4% in urine. […] There were no effects on embryofetal development up to 1 mg/kg/dose in rats and 30 mg/kg/dose in rabbits.

[1] = 14-week rat toxicity study; type: in vivo; details: 5 mg/kg biw
From the text: as §1

With CCCCOc1nc(N)c2[nH]cc(Cc3ccc(CN4CCCC4)cc3)c2n1 [Compound 4] the “lowest effective concentration (LEC) for activation of monkey TLR7” value (monkey TLR7) was less than 119 nM and the brain inflammation [1] was “Brain inflammation occurred”.
